Measurements reported in patent US5739284A, “Compositions corresponding to a high-affinity glutamate transporter molecule and methods for making and using same” (Brigham and Women's Hospital, Inc., priority 1995, dated 1998).

Columns and labels:
[1] = target: T1, human excitatory amino acid carrier (Homo sapiens, UniProt P43005); experiment: voltage dependence of currents mediated by human carrier; assay type: cell-based
T1 sequence (P43005 1-524): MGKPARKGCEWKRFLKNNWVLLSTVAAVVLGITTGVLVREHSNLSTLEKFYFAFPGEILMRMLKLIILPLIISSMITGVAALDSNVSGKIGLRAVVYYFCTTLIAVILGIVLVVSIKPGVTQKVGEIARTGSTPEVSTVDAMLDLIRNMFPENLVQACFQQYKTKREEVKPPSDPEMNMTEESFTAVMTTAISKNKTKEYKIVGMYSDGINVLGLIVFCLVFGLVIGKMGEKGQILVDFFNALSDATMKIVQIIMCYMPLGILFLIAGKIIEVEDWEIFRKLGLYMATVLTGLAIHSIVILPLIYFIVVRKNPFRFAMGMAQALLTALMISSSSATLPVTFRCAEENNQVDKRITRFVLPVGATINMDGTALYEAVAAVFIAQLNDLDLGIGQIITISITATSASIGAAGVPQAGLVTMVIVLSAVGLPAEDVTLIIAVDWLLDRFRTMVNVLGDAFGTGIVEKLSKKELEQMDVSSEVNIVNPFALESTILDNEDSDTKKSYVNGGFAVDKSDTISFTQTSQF
Text: (§2) Oocytes were used for two-microelectrode voltage-clamping as described above and command potentials were applied and controlled by an IBM-compatible computer via the software CLAMPEX from pCLAMP (version 5.5 Axon Instruments, CA). The oocyte membrane was held at -50 mV and pulsed to the test potential for msec followed by a 1 sec interpulse interval at the holding potential of -50 mV before application of the next pulse. Current was low-pass filtered at 50 kHz, digitized at 200 μsec and saver on the computer. Steady-state currents were obtained by averaging the current between 72 and 76 msec.

[2] = target: T2, Human High Affinity Glutamate Transporter HEAAC1 (Homo sapiens, UniProt P43005); experiment: inhibition of L-glutamate-evoked currents in oocytes expressing human carrier; assay type: cell-based; design: expressed in transfected cells; host or cells: Xenopus laevis oocytes (cRNA injection; human kidney clone K-3)
T2 sequence (P43005 1-524 V96L/K170N/P172A/L260H): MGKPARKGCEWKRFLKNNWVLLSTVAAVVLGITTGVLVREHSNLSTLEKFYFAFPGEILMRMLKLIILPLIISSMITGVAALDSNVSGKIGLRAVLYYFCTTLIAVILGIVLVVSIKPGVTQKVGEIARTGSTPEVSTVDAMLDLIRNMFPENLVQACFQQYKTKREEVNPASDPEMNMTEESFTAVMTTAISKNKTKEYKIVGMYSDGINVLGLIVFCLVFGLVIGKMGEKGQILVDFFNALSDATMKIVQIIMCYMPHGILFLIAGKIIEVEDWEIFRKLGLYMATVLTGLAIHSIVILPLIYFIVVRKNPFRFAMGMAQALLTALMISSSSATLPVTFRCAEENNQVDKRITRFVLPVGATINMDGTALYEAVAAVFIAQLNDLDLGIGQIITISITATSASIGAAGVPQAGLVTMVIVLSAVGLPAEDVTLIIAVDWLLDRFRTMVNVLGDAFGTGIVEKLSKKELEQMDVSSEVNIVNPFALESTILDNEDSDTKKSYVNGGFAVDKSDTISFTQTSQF
Text: (§1) The glutamate evoked currents were first measured without addition of inhibitor. […] Calculation of KI values was based on the kinetics for competitive inhibition.

[3] = target: T2, Human High Affinity Glutamate Transporter HEAAC1; experiment: substrate-evoked currents in oocytes expressing human carrier
Text: as §1
Oocytes were used for two-microelectrode voltage-clamping as described above and command potentials were applied and controlled by an IBM-compatible computer via the software CLAMPEX from pCLAMP (version 5.5 Axon Instruments, CA). The oocyte membrane was held at -50 mV and pulsed to the test potential for […] followed by a 1 sec interpulse interval at the holding potential of -50 mV before application of the next pulse. Current was low-pass filtered at […], digitized at 200 μsec and saver on the computer. Steady-state currents were obtained by averaging the current between 72 and 76 msec.

[4] = target: T3, excitatory amino acid carrier protein (EAAC1) derived from rabbit (Oryctolagus cuniculus, UniProt P31597); experiment: substrate-evoked currents (two-microelectrode voltage clamp) in oocytes expressing rabbit EAAC1; settings: 100 μM substrate, -60 mV holding potential, FIG. 7
T3 sequence (P31597 1-524): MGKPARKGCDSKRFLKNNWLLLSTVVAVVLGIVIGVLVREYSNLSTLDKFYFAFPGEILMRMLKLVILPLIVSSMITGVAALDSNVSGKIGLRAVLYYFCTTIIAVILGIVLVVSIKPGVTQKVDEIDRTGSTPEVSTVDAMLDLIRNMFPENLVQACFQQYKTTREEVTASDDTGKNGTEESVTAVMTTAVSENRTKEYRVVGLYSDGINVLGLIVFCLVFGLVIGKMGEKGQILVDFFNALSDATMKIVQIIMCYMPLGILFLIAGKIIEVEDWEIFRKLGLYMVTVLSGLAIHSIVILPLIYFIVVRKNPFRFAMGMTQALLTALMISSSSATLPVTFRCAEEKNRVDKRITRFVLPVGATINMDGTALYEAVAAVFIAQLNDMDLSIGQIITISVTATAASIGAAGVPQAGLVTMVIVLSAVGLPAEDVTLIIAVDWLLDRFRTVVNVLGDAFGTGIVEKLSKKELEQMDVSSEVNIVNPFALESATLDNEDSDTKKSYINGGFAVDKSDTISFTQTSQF
Protocol: (§3) Electrophysiological measurements were performed 3-4 days after injection using a conventional two-microelectrode voltage clamp method (Axoclamp-2A, Axon Instruments, CA).
(§4) The standard bath solution (ND 96) contained 96 mM NaCl, 2 mM KCl, 1.8 mM CaCl2, 1.0 mM MgCl2 and 5 mM HEPES pH 7.4 The recording chamber was perfused with bath solution.
(§5) The membrane current was measured in standard bath solution (ND 96) at -60 mV holding potential. Substrates were applied at the bars.
(§6) FIG. 9 graphically depicts the changes in glutamate induced current measured in nanoampere (nA) at concentrations ranging from 1 μM to 1 mM glutamate. The results were fitted to a Michaelis-Menton curve. An Eadie-Hofstee plot is depicted in the inset.
(§7) Xenopus laevis oocytes were injected with excitatory amino acid carrier cRNA derived from rabbit (25 ng/oocyte) and used for two microelectrode voltage clamp experiments. Recordings were performed at -60 mV in regular ND 96 saline (96 mM NaCl, 2 mM KCl, 1.8 mM CaCl2, 1.0 mM MgCl2 and 5 mM Hepes pH 7.4).

[5] = substrate: N[C@H](C(=O)O)[C@H](O)C(=O)O; experiment: cells, lysate or membranes; settings: other: HEAAC1, human
Text: as §2

[6] = substrate: O=C(O)[C@H]1CN[C@H](C(=O)O)C1; experiment: cells, lysate or membranes; settings: other: HEAAC1, human
Text: as §2

[7] = substrate: N[C@@H](CCCC(=O)O)C(=O)O; experiment: cells, lysate or membranes; settings: other: HEAAC1, human
[8] = substrate: N[C@@H](CCC(=O)O)C(=O)O; experiment: cells, lysate or membranes; settings: pH 7.4
[9] = substrate: N[C@@H](CC(=O)O)C(=O)O; experiment: cells, lysate or membranes; settings: other: EAAC1, rabbit derived; pH 7.4
Protocol: as §3, §4, §5, §6, §7

[10] = substrate: N[C@H](CC(=O)O)C(=O)O; experiment: cells, lysate or membranes; settings: other: EAAC1, rabbit derived; pH 7.4
Protocol: as §3, §4, §5, §6, §7

In the case of `N[C@@H](CCC(=O)O)C(=O)O` [L-glutamate], the “voltage dependence of Km for L-glutamate” value [1] is reported as “strongly depended on membrane voltage”.

`O=C(O)[C@H]1CN[C@H](C(=O)O)C1` [PDC, L-trans-pyrolidine-2,4-dicarboxylate] gave a Ki ([2]; HEAAC1, based on the kinetics for competitive inhibition) of about 1 µM, an IC50 ([2]; IC50, L-Glu = 1 mM, HEAAC1, L-Glu = 1 mM) of 91 ± 7.2 µM and an IC50 ([2]; IC50, L-Glu = 100 um, HEAAC1, L-Glu = 100 um) of 74 ± 11 µM. The “inhibition of the current induced by L-glutamate” value ([2]; L-glutamate 10-1,000 μM, DHK 1 mM) was “potent inhibitors”, the “order of sensitivity to inhibitors based on IC50 values” ([2]; current induced by 100 μM L-glutamate) was “THA>PDC>>AAA>DHK” and the “maximal transport rate (Vmax) of glutamate uptake” value ([2]; human carrier) was “reduces the maximal transport rate (Vmax)”. For the same molecule, the “preference as uptake inhibitor” value ([2]; human carrier) was “preferred uptake inhibitor”, the “substrate of the carrier / effect on transport” value [3] was “transport substrates” and the inward currents induced ([3]; AAD at 50 μM, DHK up to 1 mM) was “large inward currents”. The “Vmax for the PDC-induced current” value [1] was “markedly reduced” and the “overall voltage-dependencies of L-glutamate and PDC evoked currents” value [1] was “identical”.

For `N[C@@H](Cn1oc(=O)[nH]c1=O)C(=O)O` [Quisgualate, quisgualate], the “amplitude of inward current evoked by substrate” value [4] was “small but significant inward current”.

For `C=C(C)[C@H]1CN[C@H](C(=O)O)[C@H]1CC(=O)O` [kainate], the “amplitude of inward current evoked by substrate” value [4] was “did not induce current”.

B1: Human High Affinity Glutamate Transporter HEAAC1 (Homo sapiens) (protein)
chain: MGKPARKGCEWKRFLKNNWVLLSTVAAVVLGITTGVLVREHSNLSTLEKFYFAFPGEILMRMLKLIILPLIISSMITGVAALDSNVSGKIGLRAVLYYFCTTLIAVILGIVLVVSIKPGVTQKVGEIARTGSTPEVSTVDAMLDLIRNMFPENLVQACFQQYKTKREEVNPASDPEMNMTEESFTAVMTTAISKNKTKEYKIVGMYSDGINVLGLIVFCLVFGLVIGKMGEKGQILVDFFNALSDATMKIVQIIMCYMPHGILFLIAGKIIEVEDWEIFRKLGLYMATVLTGLAIHSIVILPLIYFIVVRKNPFRFAMGMAQALLTALMISSSSATLPVTFRCAEENNQVDKRITRFVLPVGATINMDGTALYEAVAAVFIAQLNDLDLGIGQIITISITATSASIGAAGVPQAGLVTMVIVLSAVGLPAEDVTLIIAVDWLLDRFRTMVNVLGDAFGTGIVEKLSKKELEQMDVSSEVNIVNPFALESTILDNEDSDTKKSYVNGGFAVDKSDTISFTQTSQF
B1 showed a Km [5] of 34 ± 6.4 µM, a Km [6] of 23 ± 3.7 µM and a Km [7] of 2400 ± 0.6 µM.

B2: excitatory amino acid carrier protein (EAAC1) derived from rabbit (Oryctolagus cuniculus) (protein)
chain: MGKPARKGCDSKRFLKNNWLLLSTVVAVVLGIVIGVLVREYSNLSTLDKFYFAFPGEILMRMLKLVILPLIVSSMITGVAALDSNVSGKIGLRAVLYYFCTTIIAVILGIVLVVSIKPGVTQKVDEIDRTGSTPEVSTVDAMLDLIRNMFPENLVQACFQQYKTTREEVTASDDTGKNGTEESVTAVMTTAVSENRTKEYRVVGLYSDGINVLGLIVFCLVFGLVIGKMGEKGQILVDFFNALSDATMKIVQIIMCYMPLGILFLIAGKIIEVEDWEIFRKLGLYMVTVLSGLAIHSIVILPLIYFIVVRKNPFRFAMGMTQALLTALMISSSSATLPVTFRCAEEKNRVDKRITRFVLPVGATINMDGTALYEAVAAVFIAQLNDMDLSIGQIITISVTATAASIGAAGVPQAGLVTMVIVLSAVGLPAEDVTLIIAVDWLLDRFRTVVNVLGDAFGTGIVEKLSKKELEQMDVSSEVNIVNPFALESATLDNEDSDTKKSYINGGFAVDKSDTISFTQTSQF
B2 showed a Km ([8]; other: EAAC1, rabbit derived) of 12.1 µM, a Km ([8]; other: glutamate-induced current, rabbit EAAC1 in oocytes) of 12.2 µM and a Km [9] of 6.5 µM. The Km [10] was 7.5 µM.
